Measurements taken from patent US20140010939A1, “Sweetness Enhancers, Sweetener Compositions, Methods of Making the Same and Consumables Containing the Same” (Nutrinova Nutrition Specialties & Food Ingredients GmbH, priority 2011, published 2014).

Experiments:
[1] = Taste and spit assay phase II - assessment of fructose enhancing features; format: in vivo; details: 20 μM with fructose (4%) in 0.5% ethanol versus fructose (4%) only, 5 individuals, 10 ml
Protocol: The taste of a sample of compound of formula (Ia) with regard to sweetness and fructose enhancing features was assessed by using a panel of trained sensory evaluators experienced in the sweet taste estimation procedure. 5 individuals were asked to taste the quality of single samples of 10 ml volume. Panelists were asked to take a sample of the liquid to be assessed (20 μM test substance compound of formula (Ia) in 0.5% ethanol) into the mouth and after some time allowed for taste perception to spit the sample out completely. Subsequently, the panelists were asked to rinse their mouth well with water or black tea to reduce any potential carry over effects. The tasting of a sample could be repeated if required. In the next step the panelists were asked to answer questions in a pairwise comparison test to determine the enhancement of sweet taste of the test substance with fructose relative to fructose only. Again, 5 individuals were given samples of 10 ml volume. This time two samples were prepared for direct comparison regarding sweetness. One sample contained fructose (4%) in solvent (0.5% ethanol) and the other sample additionally contained 20 μM of the test substance compound of formula (Ia). Designation of the samples with A and B was randomized and decoded after the taste procedure. […]

[2] = Taste and spit assay phase I - qualitative assessment; format: in vivo; details: 20 μM in 0.5% ethanol, 10 ml samples, 5 individuals, ambient temperature
Protocol: The taste of a sample of compound of formula (Ia) with regard to sweetness and fructose enhancing features was assessed by using a panel of trained sensory evaluators experienced in the sweet taste estimation procedure. 5 individuals were asked to taste the quality of single samples of 10 ml volume. Panelists were asked to take a sample of the liquid to be assessed (20 μM test substance compound of formula (Ia) in 0.5% ethanol) into the mouth and after some time allowed for taste perception to spit the sample out completely. Subsequently, the panelists were asked to rinse their mouth well with water or black tea to reduce any potential carry over effects. The tasting of a sample could be repeated if required. In a first descriptive test 5 individuals were asked to taste the quality of single samples of 10 ml volume (maximum 3 subsequent samples). The samples were served at ambient temperature. The individuals of the taste panel were asked to answer the following questions with regard to the quality of taste: 1) does the sample taste sweet?, 2) is there another taste detectable (bitter, sour, salty, umami)?, 3) is there an off- or aftertaste?, 4) is there anything else remarkable about the perception of the sample?

CC(=O)N(O)CCCCCNC(=O)C(O)(CC(=O)O)CC(=O)NCCCN(O)C(C)=O (stereo not drawn) [compound of formula (Ia)]
Sweetness in pairwise comparison with fructose only [1]: All 5 panelists identified the sample containing 4% fructose with the compound of formula (Ia) as sweeter than the sample containing 4% fructose only
Characteristic taste of the sample (sweet, bitter, sour, salty, umami) [2]: No characteristic taste was identified
Off- or aftertaste [2]: no off-taste was detected
